Test results reported in ChEMBL document CHEMBL3862020, “A fluorescent analogue of tauroursodeoxycholic acid reduces ER stress and is cytoprotective” (Bioorg Med Chem Lett, 2016).
Active and inactive are the calls of the source. No cut-off for these calls is given here.

Tests used:
[1] = test system: Huh-7; experiment: Cytoprotective activity against tunicamycin-induced ER stress in human HuH7 cells assessed as inhibition of BIP/GRP78 mRNA levels at 1mM after 6 hrs; type: functional, cell-based
[2] = test system: Huh-7; experiment: Cytoprotective activity against tunicamycin-induced ER stress in human HuH7 cells assessed as inhibition of XBPs mRNA levels after 6 hrs; type: functional, cell-based
[3] = test system: Huh-7; experiment: Cytoprotective activity against DCA-induced ER stress in human HuH7 cells assessed as inhibition of XBPs mRNA levels after 6 hrs; type: functional, cell-based
[4] = test system: Huh-7; experiment: Cytoprotective activity against DCA-induced cell death in human HuH7 cells assessed as increase in cell viability at 500 uM preincubated with cells followed by DCA addition measured after 24 hrs by MTT/INCELL assay; type: functional, cell-based
[5] = test system: Huh-7; experiment: Cytoprotective activity against tunicamycin-induced ER stress in human HuH7 cells assessed as increase in XBPu mRNA levels after 6 hrs; type: functional, cell-based
[6] = Cytotoxicity against human HuH7 cells assessed as reduction in cell viability by MTT assay; type: toxicity, cell-based; details: huh-7
[7] = test system: Huh-7; experiment: Cytoprotective activity against tunicamycin-induced ER stress in human HuH7 cells assessed as inhibition of BIP/GRP78 mRNA levels after 6 hrs; type: functional, cell-based
[8] = test system: Huh-7; experiment: Cytoprotective activity against tunicamycin-induced ER stress in human HuH7 cells assessed as inhibition of CHOP mRNA levels after 6 hrs; type: functional, cell-based
[9] = test system: Huh-7; experiment: Cytoprotective activity against DCA-induced ER stress in human HuH7 cells assessed as inhibition of […] mRNA levels after 6 hrs; type: functional, cell-based
[10] = Cytotoxicity against HEK293 cells assessed as reduction in cell viability by MTT assay; type: toxicity, cell-based; details: human
[11] = test system: Huh-7; experiment: Cytoprotective activity against DCA-induced ER stress in human HuH7 cells assessed as increase in XBPu mRNA levels after 6 hrs; type: functional, cell-based
[12] = test system: Huh-7; experiment: Cytoprotective activity against tunicamycin-induced ER stress in human HuH7 cells assessed as reduction in XBPs/XBPu ratio after 6 hrs; type: functional, cell-based
[13] = test system: Huh-7; experiment: Cytoprotective activity against DCA-induced cell death in human HuH7 cells assessed as increase in cell viability at 1 mM preincubated with cells followed by DCA addition measured after 24 hrs by MTT/INCELL assay; type: functional, cell-based

Row | SMILES | inhibition [1] | inhibition [2] | inhibition [3] | Activity [4] | Activity [5] | Activity [6] | inhibition [7] | inhibition [8] | inhibition [9] | Activity [10] | Activity [11] | Activity [12] | Activity [13]
1 | C[C@H](CCC(=O)O)[C@H]1CC[C@H]2[C@@H]3[C@@H](O)C[C@@H]4C[C@H](O)CC[C@]4(C)[C@H]3CC[C@]12C | Active |  |  |  |  |  |  |  |  |  |  |  | 
2 | C[C@H](CCC(=O)NCCS(=O)(=O)O)[C@H]1CC[C@H]2[C@@H]3[C@@H](O)C[C@@H]4C[C@H](NS(=O)(=O)c5cccc6c(N(C)C)cccc56)CCC4(C)[C@H]3CC[C@]12C (single isomer, unassigned) |  | Active | Active | Active | Active | Non-Toxic | Active | Active | Active | Non-Toxic | Active | Active | 
3 | C[C@H](CCC(=O)NCCS(=O)(=O)O)[C@H]1CC[C@H]2[C@@H]3[C@@H](O)C[C@@H]4C[C@H](O)CC[C@]4(C)[C@H]3CC[C@]12C [TAURURSODIOL] |  | Active | Active |  | Active | Non-Toxic | Active | Active |  | Non-Toxic | Active | Active | Active
